Peptide text beside a SMILES is read from it.
Key:
[1] = In vitro peptide stability in RPMI medium with 25% (v/v) human serum (RP-HPLC); assay type: in vitro ADME; conditions: 37° C., up to 24 hours
Protocol: (§1) Stock peptide solutions for use in stability assays were prepared by dissolving tR1 to a final concentration of 5 mg/mL in dimethyl sulfoxide (DMSO). For stability tests, 2 μL of stock tR1 peptides were added to 198 μL pre-warmed RPMI medium supplemented with 25% (v/v) heat-inactivated human AB serum or neurobasal (NB) media at a final concentration of 50 μg/mL. Each reaction was subsequently incubated at 37° C. for the indicated times. Following incubation, 400 μL aqueous trichloroacetic acid (15%, w/v) was added to each reaction and the samples were immediately cooled on ice for 15 minutes. The samples were then centrifuged 3× at 14,000 rpm to remove precipitated proteins. […] The background signal was subtracted from each respective spectrum and the fraction of intact peptide was quantified from product peak integration normalized to undigested controls. […]
(§2) A major limitation to the therapeutic efficacy of peptides is their susceptibility to proteolytic degradation. Indeed, short peptides generally have a serum half-life measured in minutes. The in vitro stability of tR1 peptides in the presence of proteolytic enzymes was determined. […] Following the incubation, the reactions were quenched using haloacetic acids and the extent of degradation was quantified by analytical HPLC.

[2] = tested on: kinases that phosphorylate tau at Thr231; test: Immunofluorescence of tau Thr231 phosphorylation in neurons; assay type: cell-based, rat
[3] = tested on: rat primary cortical neurons; conditions: 72 hours
Protocol: Primary cells were isolated from embryonic Sprauge-Dawley rats and cultured as described.
High density rat primary cortical neurons (5-7 DIV) cultured in polyE coated 24-well plates were used for this assay. Culture media was switched to neurobasal without B27 supplement (NB-B27) before the addition of tR1 peptides. […] For the MTT assay, 50 μg/mL MTT working solution was diluted from a 5 mg/mL MTT stock (water solution made from MTT powder, Alfa Aesar L11939) in NB-B27. After aspirating out the culture media, cells were incubated with 0.2 mL 50 μg/mL MTT working solution for one hour at 37° C. Then, the MTT solution was aspirated and replaced with 0.5 mL DMSO. The whole DMSO solution was transferred to a cuvette and read in the spectrophotometer (Cary UV 50, Varian) at 550 nm with subtraction of the reading at 650 nm wavelength.

MARK2 = MARK2 (Homo sapiens, UniProt Q7KZI7); test: Validation of tR1 as a substrate for MARK2 (western blot, α-pTau Ser262); assay type: biochemical; conditions: ATP, 60 minutes at 32° C.
From the text: Once an otherwise competent kinase-substrate pair was developed for a working phosphorylation assay, tR1 was validated as a substrate for MARK2. The tR1 peptide (NVKSKIGSTENLK [SEQ ID NO: 1]) was synthesized using standard Fmoc-based solid-phase synthesis procedures and the final sequence was either acylated (tR1) or labeled with 5-carboxyfluorescein (tR1) on its N-terminus (FIG. 6A). See the experimental procedures, below, for details on the synthesis, labeling, purification and characterization of tR1 peptides. To evaluate whether tR1 is recognized as a substrate by MARK2, MARK2 was incubated with ATP in the presence of varying concentrations of tR1 peptide for 60 minutes at 32° C. in phosphorylation buffer. Following incubation, phosphorylated tR1 peptides were separated by SDS-PAGE and identified by Western blot using antibodies specific for hTau pSer262 (FIG. 6B). Western blot analysis confirmed tR1 as a substrate of MARK2 by the presence of a sharp band at the highest concentration (100 μM).
Phosphorylation assays were performed in 30 μL phosphorylation buffer (50 mM Tris-HCl, 5 mM MgCl2, 2 mM EGTA, 0.5 mM DTT, 0.5 mM benzamidine HCl, 0.5 mM PMSF, pH 8.0) and depending on the experimental conditions. […] Images were acquired by a Bio-Rad Gel Doc EZ imager and the band intensity was quantified using Image Lab Software c5.2.1 (Bio-Rad).

trypsin = test: Trypsin degradation control (RP-HPLC); assay type: in vitro ADME; conditions: 37° C.
Protocol: as §1, §2

Sequence of MARK2 (Q7KZI7 whole entry): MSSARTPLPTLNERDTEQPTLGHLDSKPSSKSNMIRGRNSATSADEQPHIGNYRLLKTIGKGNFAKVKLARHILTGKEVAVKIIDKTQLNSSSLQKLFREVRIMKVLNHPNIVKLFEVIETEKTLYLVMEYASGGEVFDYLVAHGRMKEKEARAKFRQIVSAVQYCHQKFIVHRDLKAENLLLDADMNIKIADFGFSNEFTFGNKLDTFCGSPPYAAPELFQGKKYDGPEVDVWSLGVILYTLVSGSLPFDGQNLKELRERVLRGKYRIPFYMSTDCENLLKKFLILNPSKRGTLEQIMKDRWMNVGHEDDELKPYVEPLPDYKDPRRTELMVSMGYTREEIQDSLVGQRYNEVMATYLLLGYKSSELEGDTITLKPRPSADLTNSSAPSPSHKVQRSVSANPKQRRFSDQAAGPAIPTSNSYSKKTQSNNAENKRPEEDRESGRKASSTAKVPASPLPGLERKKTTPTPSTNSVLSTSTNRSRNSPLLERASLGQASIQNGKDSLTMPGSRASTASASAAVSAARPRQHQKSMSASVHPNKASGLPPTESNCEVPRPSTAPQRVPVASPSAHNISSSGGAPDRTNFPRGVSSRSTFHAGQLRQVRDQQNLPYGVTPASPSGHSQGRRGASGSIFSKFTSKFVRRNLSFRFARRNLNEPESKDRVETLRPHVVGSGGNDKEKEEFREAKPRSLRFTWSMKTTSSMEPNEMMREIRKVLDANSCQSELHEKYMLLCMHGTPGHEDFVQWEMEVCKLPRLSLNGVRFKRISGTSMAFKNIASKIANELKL

## CC[C@H](C)[C@H](NC(=O)[C@H](CCCCN)NC(=O)[C@H](CO)NC(=O)[C@H](CCCCN)NC(=O)[C@@H](NC(=O)[C@H](CC(N)=O)NC(C)=O)C(C)C)C(=O)NCC(=O)N[C@@H](CO)C(=O)N[C@H](C(=O)N[C@@H](CCC(=O)O)C(=O)N[C@@H](CC(N)=O)C(=O)N[C@@H](CC(C)C)C(=O)N[C@@H](CCCCN)C(N)=O)[C@@H](C)O [tR1, NVKSKIGSTENLK] (Ac-NVKSKIGSTENLK-NH2)
[1]
  fraction of intact tR1 (stable): > 90%
[1]; RPMI medium with 25% (v/v) heat-inactivated human AB serum, read-out: fraction of intact tR1 (stable)
  remaining at 24 h, 50 μg/mL: > 90%
[2]; 30 μM tR1 and 100 μM CLQ, no PAO
  level of pTau Thr231 compared to untreated control cells: did not show any significant loss of pTau Thr231
[2]; tR1 with PAO, even in the presence of CLQ
  effect on PAO-mediated inhibition of tau Thr231 phosphorylation: did not influence the PAO-mediated inhibition of tau Thr231 phosphorylation
[3]; MTT
  concentrations at which tR1 is non-toxic: up to 300 μM
[3]; highest concentrations of tR1 (0-300 μM)
  loss in cell viability: < 5%
MARK2; 0, 1, or 10 μM peptide
  phosphorylation of tR1 by MARK2 (western blot): Phosphorylation was not seen
MARK2; 100 μM peptide
  phosphorylation of tR1 by MARK2 (western blot): sharp band
trypsin; trypsin 10 ng/μL in digestion buffer, 15 minutes
  degradation by trypsin: complete degradation
trypsin; trypsin 10 ng/μL
  time to degradation in buffer containing trypsin: less than 15 minutes

Source: patent US20210147481A1, “PEPTIDE-BASED INHIBITORS OF MARK FAMILY PROTEINS” (Ohio Universtiy, priority 2017, published 2021)
